Test results published in patent US9937194B1, “Compounds and methods for treating inflammatory diseases” (priority 2009, dated 2018).
Converted amounts (≈) assume the structure as drawn. “And” between values parts separate entries of the source, which are not always exact repeats. Equal entries are not always repeated.

Legend:
MMP9 = assay: PMA-induced MMP9 expression in U937 cells (gelatin zymography); format: cell-based, human; conditions: for MMP9 inhibition (%): test concentration not given, bracketed second value not explained
Protocol: Zymography. MMP9 enzyme activity is measured by gelatin zymography. 5 μl of supernatants were diluted with 5 μl Laemli sample buffer (Bio-Rad) and are loaded on a Novex® 10% Zymogram (Gelatin) gel (Invitrogen). After electrophoresis (90 min, 125 V, 35 mA, 5 W) gels are incubated with 1× Novex® zymogram renaturing buffer (Invitrogen) for 30 min at room temperature with gentle agitation. Gels are then rinsed in 1× Novex® zymogram developing buffer (Invitrogen) for 30 min at room temperature with gentle agitation prior to overnight incubation in the developing buffer at 37° C. After incubation the gels are stained using the colloidal blue staining kit (Invitrogen) with buffer containing 20% methanol and 70% distilled water to visualize the zymogen bands. Relevant band intensities are quantified by densitometric analysis using the UVP GelDoc-It system.
Effects of compounds on PMA-induced MMP9 expression in U937 cells. U937 cells are pretreated with compounds described herein for 1 hr, followed by PMA (50 ng/ml) treatment for 48 hrs. After 48 hrs supernatants are collected for zymography. MMP9 enzyme activity is measured by gelatin zymography. Data are expressed as fold changes against positive control treated with PMA only. Values represent means of three experiments±SEM.

H. influenzae ATCC 49247 = assay: MIC; format: cell-based
E. faecium ATCC 19434 = assay: MIC; format: cell-based
K. pneumonia 13883 = assay: MIC; format: cell-based; conditions: in µg/mL
S. pneumoniae ATCC 49619 = assay: MIC; format: cell-based
TNFα = assay: LPS-induced TNFα release in PMA-differentiated U937 cells (ELISA); format: cell-based, human; conditions: test concentration not given
Protocol: (§1) Cytokine ELISA. LPS-induced IL-8, TNFα concentrations and TNFα-induced IL-8 concentrations are determined by sandwich ELISA according to the manufacturer's instructions (R&D Systems Europe). IC50 values for dexamethasone on IL-8 production are calculated using the computer program Prism 4.0 (GraphPad Software Inc., San Diego, Calif.) as a marker for steroid sensitivity.
(§2) Effects of compounds on LPS-induced IL-8 and TNFα release in PMA-differentiated U937 cells. PMA-differentiated macrophage-like cells are pretreated with compounds described herein for 1 hr, followed by LPS (100 ng/ml) stimulation for 4 hrs. LPS-induced IL-8 and TNFα release is evaluated by ELISA. Values represent means of three experiments±SEM.

[1] = format: cell-based; conditions: test concentration not given
Protocol: The human monocytic cell line U937 and the human type II alveolar epithelial carcinoma cell line A549 were obtained from the American Type Culture Collection (ATCC, Rockville, Md.). PBMCs from COPD patients were obtained in Brompton hospital and separated by AccuSPIN (Sigma-Aldrich, Poole, UK). Cells were cultured in complete growth medium (Sigma-Aldrich) (RPMI 1640 for U937, PBMCs, and Dulbecco's modified essential medium (DMEM) for A549) supplemented with 10% fetal bovine serum (FBS) and 1% L-glutamine at 37° C. in a humidified atmosphere with 5% CO2. U937 were differentiated into an adherent macrophage-like morphology by exposure to PMA (50 or 100 ng/ml) for 48 hrs in complete growth medium. Cell viability was assessed microscopically by trypan blue staining. Cell toxicity was determined by MTT assay as needed. This study was approved by the ethics committee of the Royal Brompton Hospitals, and all subjects gave written informed consent.

[2] = system: S. aureus ATCC 29213 (MSSA) MLS-S; assay: MIC; format: cell-based
S. aureus MRSA 33591 = assay: MIC; format: cell-based
HDAC activity = assay: H2O2-induced reduction of HDAC activity in PMA-differentiated U937 cells; format: cell-based, human; conditions: for restoration of H2O2-reduced HDAC activity (%): test concentration not given, bracketed second value not explained
Protocol: In cell HDAC assay. Cells are incubated with Fluor de Lys™ substrate for 1 hr before lyses. Total HDAC activity from whole cell extracts is measured using the HDAC Fluorimetric Assay/Drug Discovery Kit (BIOMOL® International, Inc., Plymouth Meeting, Pa.).
HDAC expression: In cell HDAC activity assay: U937 is differentiated to macrophage type cells by PMA for 3 days. HDAC fluorescent substrate (Biomol) is added before exposure of oxidative stress (H2O2, 200 μM) or Tobacco smoke conditioned medium for 4 hrs. HDAC activity is measured (Biomol kit). Compounds at different concentrations are treated 20 min before oxidative stress treatment.
PMA-differentiated macrophage-like cells are pretreated with compounds described herein for 20 min. After H2O2 (200 μM) stimulation for 4 hrs, HDAC activity is assayed. Data are expressed as fold changes against positive control treated with H2O2 only. Values represent means of four experiments±SEM.

IL-8 = assay: LPS-induced IL-8 release in PMA-differentiated U937 cells (ELISA); format: cell-based, human; conditions: test concentration not given
Protocol: as §1, §2

H. influenzae LC002 = assay: MIC; format: cell-based
[3] = system: N. gonorrhoeae ATCC 49226; assay: MIC; format: cell-based; design: unit not given beside the values
S. pneumoniae 163 (MefA) = assay: MIC; format: cell-based; conditions: in µg/mL
P. aeruginosa ATCC 27853 = assay: MIC; format: cell-based
[4] = system: S. typhimurium ATCC 14028; assay: MIC; format: cell-based; conditions: in µg/mL
E. coli ATCC 25922 = assay: MIC; format: cell-based; conditions: in µg/mL
[5] = system: S. aureus 96:11480 (MLS-I); assay: MIC; format: cell-based; design: unit not given beside the values
S. pneumoniae 303 (ErmB) = assay: MIC; format: cell-based
S. pyogenes ATCC 19615 = assay: MIC; format: cell-based; conditions: in µg/mL

SMILES | MMP9 inhibition (%) (MMP9) | MIC H. influenzae ATCC 49247 (H. influenzae ATCC 49247) | MIC E. faecium ATCC 19434 (E. faecium ATCC 19434) | MIC K. pneumonia 13883 (K. pneumonia 13883) | MIC S. pneumoniae ATCC 49619 (S. pneumoniae ATCC 49619) | TNFα inhibition (%) (TNFα) | Cell Toxicity (% cell death) [1] | MIC S. aureus ATCC 29213 (MSSA) MLS-S [2] | MIC S. aureus MRSA 33591 (S. aureus MRSA 33591) | restoration of H2O2-reduced HDAC activity (%) (HDAC activity) | IL-8 inhibition (%) (IL-8) | MIC H. influenzae LC002 (H. influenzae LC002) | MIC S. pneumoniae 163 (MefA) (S. pneumoniae 163 (MefA)) | MIC S. typhimurium ATCC 14028 [4] | MIC E. coli ATCC 25922 (E. coli ATCC 25922) | MIC S. aureus 96:11480 (MLS-I) [5] | MIC S. pneumoniae 303 (ErmB) (S. pneumoniae 303 (ErmB)) | MIC S. pyogenes ATCC 19615 (S. pyogenes ATCC 19615) | further results
CC[C@H]1OC(=O)[C@H](C)C(=O)[C@H](C)[C@@H](O[C@H]2C[C@@H](N(C)C)[C@H](O)[C@@H](C)O2)[C@@](C)(OC)C[C@@H](C)C(=O)[C@H](C)[C@H]2N(CCCCn3cc(-c4ccccn4)nn3)C(=O)O[C@]12C [Example 21] | 49 (41) % | > 64 µg/mL | > 64 µg/mL | >64 | > 64 µg/mL | 14% | 3% | > 64 µg/mL | > 64 µg/mL | 36% | 59% | > 64 µg/mL |  |  |  |  |  |  | 
CCC1OC(=O)C(C)(F)C(=O)C(C)C(OC2OC(C)CC(N(C)C)C2O)C(C)(OC)CC(C)C(=O)C(C)C2N(CCCCn3cc(Cn4nnc5ccccc54)nn3)C(=O)OC12C (stereo not drawn) [Example 22] | 38 (23) % | 2 µg/mL (≈ 2.26 µM) | ≤ 0.125 µg/mL | >64 | ≤ 0.125 µg/mL | 48% | 11% | ≤ 0.125 µg/mL | > 64 µg/mL | 22 (29) % | 76% |  | 64 | 64 | >64 | ≤0.125 | ≤ 0.125 µg/mL |  | MIC N. gonorrhoeae ATCC 49226 [3]: 0.25; MIC P. aeruginosa ATCC 27853 (P. aeruginosa ATCC 27853): > 64 µg/mL
CC[C@H]1OC(=O)[C@H](C)C(=O)[C@H](C)[C@@H](O[C@@H]2O[C@H](C)[C@@H](OC(C)=O)[C@H](NC(C)=O)[C@H]2OC(C)=O)[C@@](C)(OC)C[C@@H](C)C(=O)[C@H](C)[C@H]2N(CCCCn3cc(-c4ccccn4)nn3)C(=O)O[C@]12C [Example 23] | 32 (31) % | > 64 µg/mL | 16 µg/mL (≈ 17.3 µM) | >64 | 4 µg/mL (≈ 4.31 µM) | 76% | 9% | > 64 µg/mL | > 64 µg/mL | −13% | 13% | > 64 µg/mL | 2 |  |  | >64 | 16 µg/mL (≈ 17.3 µM) | 16 | 
CCC1OC(=O)C(C)C(=O)C(C)C(OC2OC(C)CC(N(C)C)C2O)C(C)(OC)CC(C)C(=O)C(C)C2N(CCCCN)C(=O)OC12C (stereo not drawn) [Example 1] | 55 (43) % | > 64 µg/mL | 4 µg/mL (≈ 5.85 µM) | >64 | ≤ 0.125 µg/mL | 73% | 6% | 8 µg/mL (≈ 11.7 µM) | > 64 µg/mL | 68 (53) % | 72% | > 64 µg/mL | 0.5 and 1 | >64 | >64 | 8 | > 64 µg/mL | 0.25 and 0.5 | concentration at which PMA-induced MMP9 up-regulation is inhibited (MMP9; U937, pretreated 1 hr, PMA 50 ng/ml 48 hrs): ≥ 300 µM; concentration at which the H2O2-induced reduction in HDAC activity is restored (HDAC activity; PMA-differentiated U937, pretreated 20 min, H2O2 200 μM 4 hrs): ≥ 100 µM
